Measured values reported in ChEMBL document CHEMBL1201862, “PubChem BioAssay data set” (2004).
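Tested at 5 concentrations; 48 h exposure; 96-well plates; endpoints linearly interpolated, else capped at highest concentration. At the GI50, growth is halved.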 The source made the active and inactive calls. Cut-off read from the data, not from the text of the source: active = GI50 up to about 1.1 µM and inactive = higher.

Experiments:
Test in all cases: DTP human tumour cell line panel, 48 h
PC-3 = test system: PC-3
TK-10 = test system: TK-10
BT-549 = test system: BT-549
HCT-116 = test system: HCT-116
SR = test system: SR
SK-MEL-2 = test system: SK-MEL-2
LOX IMVI = test system: LOX IMVI
MDA-MB-435 = test system: MDA-MB-435
RPMI-8226 = test system: RPMI-8226
MDA-N = test system: MDA-N
SW-620 = test system: SW-620
SN12C = test system: SN12C
CCRF-CEM = test system: CCRF-CEM
NCI-H23 = test system: NCI-H23
A549 = test system: A549
ACHN = test system: ACHN
EKVX = test system: EKVX
786-0 = test system: 786-0
NCI/ADR-RES = test system: NCI/ADR-RES
SF-539 = test system: SF-539
SF-268 = test system: SF-268
HT-29 = test system: HT-29
HCC 2998 = test system: HCC 2998
SK-OV-3 = test system: SK-OV-3
SK-MEL-5 = test system: SK-MEL-5
Hs-578T = test system: Hs-578T
SK-MEL-28 = test system: SK-MEL-28
OVCAR-5 = test system: OVCAR-5
SNB-75 = test system: SNB-75
A498 = test system: A498
M14 = test system: M14
HL-60 = test system: HL-60
SNB-19 = test system: SNB-19
OVCAR-8 = test system: OVCAR-8
T47D = test system: T47D
UACC-257 = test system: UACC-257
HCT-15 = test system: HCT-15
U-251 = test system: U-251
UO-31 = test system: UO-31
CAKI-1 = test system: CAKI-1
MOLT-4 = test system: MOLT-4
IGROV-1 = test system: IGROV-1
COLO 205 = test system: COLO 205
RXF 393 = test system: RXF 393
K562 = test system: K562
OVCAR-4 = test system: OVCAR-4
NCI-H522 = test system: NCI-H522
SF-295 = test system: SF-295
OVCAR-3 = test system: OVCAR-3
NCI-H460 = test system: NCI-H460
NCI-H226 = test system: NCI-H226
MDA-MB-231 = test system: MDA-MB-231
DU-145 = test system: DU-145
UACC-62 = test system: UACC-62
Malme-3M = test system: Malme-3M
KM12 = test system: KM12
HOP-92 = test system: HOP-92

Measured: GI50

Cc1cc(C)nc(NS(=O)(=O)c2ccc(NC(=O)NC(F)(F)F)cc2)n1
> 100 µM: HCT-15
inactive: PC-3 > 100 µM | TK-10 > 100 µM | BT-549 > 100 µM | HCT-116 > 100 µM | SR > 100 µM | SK-MEL-2 > 100 µM | LOX IMVI > 100 µM | MDA-MB-435 > 100 µM | RPMI-8226 > 100 µM | MDA-N > 100 µM | SW-620 > 100 µM | SN12C > 100 µM | CCRF-CEM > 100 µM | NCI-H23 > 100 µM | A549 > 100 µM | ACHN > 100 µM | EKVX > 100 µM | 786-0 > 100 µM | NCI/ADR-RES > 100 µM | SF-539 > 100 µM | SF-268 > 100 µM | HT-29 > 100 µM | HCC 2998 > 100 µM | SK-OV-3 > 100 µM | SK-MEL-5 > 100 µM | Hs-578T > 100 µM | SK-MEL-28 > 100 µM | OVCAR-5 > 100 µM | SNB-75 > 100 µM | A498 > 100 µM | M14 > 100 µM | HL-60 > 100 µM | SNB-19 > 100 µM | OVCAR-8 > 100 µM | T47D > 100 µM | UACC-257 > 100 µM | U-251 > 100 µM | UO-31 > 100 µM | CAKI-1 1.95 µM | MOLT-4 > 100 µM | IGROV-1 > 100 µM | COLO 205 > 100 µM | RXF 393 > 100 µM | K562 > 100 µM

CC(=O)Nc1c(S(=O)(=O)c2ccccc2)c(C)c(C)n1Cc1ccccc1
> 100 µM: HCT-15
inactive: OVCAR-4 > 100 µM | PC-3 44.9 µM | TK-10 > 100 µM | BT-549 > 100 µM | NCI-H522 > 100 µM | HCT-116 > 100 µM | SR > 10 µM | SK-MEL-2 > 100 µM | SF-295 > 100 µM | MDA-MB-435 > 100 µM | OVCAR-3 52.8 µM | NCI-H460 > 100 µM | RPMI-8226 > 100 µM | MDA-N > 100 µM | NCI-H226 > 100 µM | SW-620 > 100 µM | SN12C > 100 µM | CCRF-CEM > 100 µM | NCI-H23 > 100 µM | A549 > 100 µM | MDA-MB-231 > 100 µM | ACHN > 100 µM | EKVX > 100 µM | 786-0 > 100 µM | NCI/ADR-RES > 100 µM | SF-268 > 100 µM | HT-29 > 100 µM | DU-145 > 100 µM | HCC 2998 > 100 µM | SK-OV-3 > 100 µM | SK-MEL-5 83.8 µM | Hs-578T > 100 µM | SK-MEL-28 > 100 µM | OVCAR-5 > 100 µM | SNB-75 > 100 µM | A498 > 100 µM | M14 > 100 µM | HL-60 > 100 µM | SNB-19 > 100 µM | OVCAR-8 > 100 µM | UACC-62 > 100 µM | T47D > 10 µM | Malme-3M > 100 µM | UACC-257 > 100 µM | U-251 > 100 µM | UO-31 > 100 µM | CAKI-1 > 100 µM | MOLT-4 > 100 µM | IGROV-1 > 100 µM | COLO 205 > 100 µM | RXF 393 > 100 µM | KM12 49.2 µM | HOP-92 > 100 µM | K562 > 100 µM
